Experimental data from patent US20250205195A1, “BENZYLOXY-BENZYLAMINYL AMINO ACID DERIVATIVE FOR ADJUSTING TSLP/TSLPR SIGNAL TRANSMISSION” (AMTIXBIO CO., LTD., priority 2021, published 2025).

Experiments:
[1] = test system: HDM-induced atopic dermatitis mice; assay: HDM (Df cream) atopic dermatitis mouse model, skin-specific memory T cell study; format: in vivo, Nc/Nga mice
From the text: Nc/Nga mice (purchased from Central Laboratory Animal, male, 6 weeks old) were used, with 2 mice per group. The experimental animals were allowed to freely access to food and water. Mice were shaved using clippers and depilatory cream before the application of Df cream. Df cream (dermatophagoides farina cream) (Biostir AD, Biostir Incorporation) was applied to the dorsal area of the mice 3 times a week for 4 weeks to induce atopic dermatitis. After confirming lesions induced in all mice, compound 27 of the present invention was applied topically to the skin three times a week for three weeks starting four weeks after the Df cream treatment. In contrast to other examples, this example excluded the simultaneous application of the test drug (compound 27 of the present invention) and the atopic dermatitis-inducing agent during the induction period. The compound of the present invention (8 g/mL and […]) was applied to the skin in a volume of 100 μL. As a positive control, 0.1% dexamethasone was topically applied to the mouse skin for comparison.
Erythema, hemorrhage, wounds, dryness, swelling, and shedding in mice were observed visually and compared using the SCORAD score. […] FIG. 12 graphically represents the changes in the atopic dermatitis mouse model's skin scores due to the treatment with each test substance (Wilcoxon-signed rank test; P<0.05 with statistically significant three mice were examined from each group).
A mouse IgE ELISA Kit (BioLegend, San Diego, CA, USA) and a mouse DF-specific IgE ELISA Kit (BioLegend, San Diego, CA, USA) were used according to the manufacturer's instructions to measure IgE in mouse serum and mouse DF-specific IgE. Changes in the levels of total IgE and DF-specific IgE in the serum were presented in FIGS. 13 (a) and (b), respectively.
Skin tissue changes were examined using Hematoxylin and Eosin (H&E) staining (refer to FIG. 14) (Data are shown as mean±standard deviation (SD). ** P<0.01, * P<0.05). Additionally, changes in eosinophils and mouse epidermal thickness were measured (see FIG. 14).
The results of the analysis of T cell fractions in the skin of atopic dermatitis mouse models treated with compound 27 of the present invention are presented in FIGS. 16 and 17 (data are shown as mean±standard deviation (SD). ** P<0.01, * P<0.05).

[2] = test system: TSLP; assay: TNF-α-induced TSLP in HaCaT cells (ELISA); format: cell-based, human
Method: Human keratinocyte HaCaT cells (obtained from the Korean Cell Line Bank) were seeded in a 12-well plate at an initial density of 2×10^5 cells/well and cultured at 37° C. for 16 to 24 hours. FK506 (Sigma), compounds 27 and 29 of the present invention were then added to the HaCaT cell culture medium at final concentrations of 0, 1, 2, 4, and 8 µg/mL, and the cells were cultured at 37° C. for 1 hour. Next, to induce TSLP, the culture medium was treated with TNF-α (Sigma-Aldrich, USA) to a final concentration of 100 ng/mL, and the cells were cultured for an additional 24 hours at 37° C. The culture supernatant was collected, and the amount of induced TSLP from HaCaT cells was determined using an ELISA kit (R&D Systems, USA) according to the manufacturer's instructions. […] Under the same conditions, to compare the TSLP reduction efficiency R.R. (Reduction rate) of compound 27, positive control compound and compound 29, equal amounts of compounds 27, 29 and FK506 (Sigma-Aldrich, USA) were pretreated for 1 hour. The amount of TSLP released into the culture supernatant from HaCaT cells stimulated by TNF-α was quantitatively analyzed and presented in Table 3 and FIG. 3 (c).

[3] = test system: interleukin-4 (IL-4); assay: PMA/ionomycin-induced interleukin-4 in RBL-2H3 cells (ELISA); format: cell-based, rat; conditions: RBL-2H3 cells, 0, 1, 2, 4 and 8 µg/mL, 24 h
Method: Rat basophilic leukemia cells RBL-2H3 (obtained from the Korean Cell Line Bank) were seeded at an initial density of 2×10^5 cells/well in a 48-well plate and cultured at 37° C. for 16 to 24 hours. Subsequently, compound 27 of the present invention was added to the RBL-2H3 cell culture medium at final concentrations of 0, 1, 2, 4, and 8 µg/mL and the cells were cultured at 37° C. for 1 hour. Next, to induce interleukin-4, the culture medium was treated with PMA ([…], Sigma-Aldrich, USA) and ionomycin (Sigma-Aldrich, USA) to final concentrations of 50 ng/mL and […], respectively, and the cells were cultured for an additional 24 hours at 37° C. The culture supernatant was then collected, and the amount of induced interleukin-4 from RBL-2H3 cells was determined using an ELISA kit (LABIS KOMA, South Korea) according to the manufacturer's instructions. FIG. 2 (a) represents the results.

[4] = HaCaT culture supernatant, TNF-α stimulated, 1 h pretreatment, equal amounts of compounds

CCC(NC)C(=O)NCc1ccc(OCc2ccc(C(F)(F)F)cc2)cc1 (racemic) [Compound 27, (R)/(S)-2-(methylamino)-N-(4-((4-trifluoromethyl)benzyl)oxy)benzyl)butanamide]
proportion of skin-specific T cells (CD3+, CD4+, CD69+, CD103+) ([1]; FACS of mouse skin, 16 g/mL, 8 g/mL): concentration-dependent significant decrease
numbers of CD69+ T cells and CD103+ T cells ([1]; FACS of mouse skin, vs 0.1% dexamethasone): statistically significant decrease
eosinophil count in skin tissue ([1]; H&E staining, topical): concentration-dependent decrease
epidermal thickness ([1]; H&E staining, with increasing drug concentration): appeared to thin
atopic dermatitis symptoms (skin scores, FIG. 12) ([1]; […], 8 g/mL topical): improved atopic dermatitis symptoms in a concentration-dependent manner
erythema, hemorrhage, dryness, wounds, swelling and shedding (visual, SCORAD) ([1]; topical, three times a week for three weeks, compound vs 0.1% dexamethasone positive control): significant reduction
amount of induced TSLP with increasing concentration ([2]; HaCaT cells, 0, 1, 2, 4 and 8 µg/mL, TNF-α 100 ng/mL, 24 h): decreased
R.R (Reduction rate) of TSLP [2, 4]: 54%
TSLP [2, 4]: 234 ng/mL
amount of induced interleukin-4 [3]: decreased proportionally
